From patent US20220281848A1, “PYRAZOLE-SUBSTITUTED PYRROLIDINONES AS HERBICIDES” (FMC Corporation, priority 2019, published 2022)

Columns and labels:
Format in all cases: in vivo
[1] = test system: barnyardgrass (Echinochloa crus-galli, ECHCG); experiment: Test A pre-emergence, barnyardgrass; conditions: after 13 d
Procedure, shortened: (§1)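 Seeds were sown in standard soil in pots, kept one day in a glasshouse (24/16° C. day/night, 14 h light, 65% humidity), then sprayed with compound in acetone/water (50:50) containing 0.5% Tween 20 at 15.625, 62.5 or 250 g/ha. Plants grew on under the same conditions, watered twice daily, and damage was scored after 13 d (0 = none, 100 = total).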

[2] = test system: ivy-leaved morning glory (Ipomoea hederacea, IPOHE); experiment: Test A pre-emergence, ivy-leaved morning glory; conditions: after 13 d
Procedure, shortened: as §1

[3] = test system: velvetleaf (Abutilon theophrasti, ABUTH); experiment: Test A pre-emergence, velvetleaf; conditions: after 13 d
Procedure, shortened: as §1

corn (Zea mays, ZEAMX) = experiment: Test A post-emergence, corn; conditions: after 13 d
Procedure, shortened: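 Visual damage at 13 d after treatment, rated from 0 (no damage) to 100 (total damage). Eight-day-old pot-grown plants had been sprayed with 15.625, 62.5 or 250 g/ha of compound in aqueous acetone (50:50) containing 0.5% Tween 20.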

plants = experiment: Test D post-emergence, other plants of Tables D2 and D4; conditions: "Cereals" Postemergent, evaluated after 15 d
Procedure, shortened: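 Damage was rated visually from 0 (none) to 100 (total), at 20 DAA for pre-emergence and 15 d for post-emergence. Plants grew from safener-treated seed in a glasshouse at 24/18° C. or 20/16° C. day/night, 65% humidity, watered twice daily.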

SMILES: CN1CC(c2cc(C(F)(F)F)n(C)n2)C(C(=O)Nc2ccc(F)cc2C(C)(F)F)C1=O (racemic) [Compound 26]
- damage to plant (100=total damage; 0=no damage) ECHCG ([1]; Pre-Emergence at 62.5 g/ha): 90
- damage to plant (100=total damage; 0=no damage) ECHCG ([1]; Pre-Emergence at 250 g/ha): 90
- damage to plant (100=total damage; 0=no damage) IPOHE ([2]; Pre-Emergence at 62.5 g/ha): 30
- damage to plant (100=total damage; 0=no damage) IPOHE ([2]; Pre-Emergence at 250 g/ha): 70
- damage to plant (100=total damage; 0=no damage) ABUTH ([3]; Pre-Emergence at 62.5 g/ha): 0
- damage to plant (100=total damage; 0=no damage) ABUTH ([3]; Pre-Emergence at 250 g/ha): 0
- damage to plant (100=total damage; 0=no damage) ZEAMX (corn (Zea mays, ZEAMX); Post-Emergence at 62.5 g/ha): 60
- damage to plant (100=total damage; 0=no damage) ZEAMX (corn (Zea mays, ZEAMX); Post-Emergence at 250 g/ha): 80
- ALOMY damage rating (100=total damage to plant; 0=no damage to plant) (plants; Rates 130): 0
- ALOMY damage rating (100=total damage to plant; 0=no damage to plant) (plants; Rates 250): 0
- ALOMY damage rating (100=total damage to plant; 0=no damage to plant) (plants; Rates 500): 40
- AVEFA damage rating (100=total damage to plant; 0=no damage to plant) (plants; Rates 130): 0
- AVEFA damage rating (100=total damage to plant; 0=no damage to plant) (plants; Rates 250): 10
- AVEFA damage rating (100=total damage to plant; 0=no damage to plant) (plants; Rates 500): 60
- BEAVA damage rating (100=total damage to plant; 0=no damage to plant) (plants; Rates 130): 0
- BEAVA damage rating (100=total damage to plant; 0=no damage to plant) (plants; Rates 250): 0
- BEAVA damage rating (100=total damage to plant; 0=no damage to plant) (plants; Rates 500): 0
- BROTE damage rating (100=total damage to plant; 0=no damage to plant) (plants; Rates 130): 0
- BROTE damage rating (100=total damage to plant; 0=no damage to plant) (plants; Rates 250): 0
- BROTE damage rating (100=total damage to plant; 0=no damage to plant) (plants; Rates 500): 0
- BRSNN damage rating (100=total damage to plant; 0=no damage to plant) (plants; Rates 130): 0
- BRSNN damage rating (100=total damage to plant; 0=no damage to plant) (plants; Rates 250): 0
- BRSNN damage rating (100=total damage to plant; 0=no damage to plant) (plants; Rates 500): 0
- CHEAL damage rating (100=total damage to plant; 0=no damage to plant) (plants; Rates 130): 0
- CHEAL damage rating (100=total damage to plant; 0=no damage to plant) (plants; Rates 250): 0
- CHEAL damage rating (100=total damage to plant; 0=no damage to plant) (plants; Rates 500): 10
- GALAP damage rating (100=total damage to plant; 0=no damage to plant) (plants; Rates 130): 0
- GALAP damage rating (100=total damage to plant; 0=no damage to plant) (plants; Rates 250): 0
- GALAP damage rating (100=total damage to plant; 0=no damage to plant) (plants; Rates 500): 60
- HORVW damage rating (100=total damage to plant; 0=no damage to plant) (plants; Rates 130): 0
- HORVW damage rating (100=total damage to plant; 0=no damage to plant) (plants; Rates 250): 0
- HORVW damage rating (100=total damage to plant; 0=no damage to plant) (plants; Rates 500): 40
- KCHSC damage rating (100=total damage to plant; 0=no damage to plant) (plants; Rates 130): 0
- KCHSC damage rating (100=total damage to plant; 0=no damage to plant) (plants; Rates 250): 0
- KCHSC damage rating (100=total damage to plant; 0=no damage to plant) (plants; Rates 500): 0
- LOLPE damage rating (100=total damage to plant; 0=no damage to plant) (plants; Rates 130): 0
- LOLPE damage rating (100=total damage to plant; 0=no damage to plant) (plants; Rates 250): 0
- LOLPE damage rating (100=total damage to plant; 0=no damage to plant) (plants; Rates 500): 60
- POAAN damage rating (100=total damage to plant; 0=no damage to plant) (plants; Rates 130): 30
- POAAN damage rating (100=total damage to plant; 0=no damage to plant) (plants; Rates 250): 20
- POAAN damage rating (100=total damage to plant; 0=no damage to plant) (plants; Rates 500): 80
- POLCO damage rating (100=total damage to plant; 0=no damage to plant) (plants; Rates 130): 0
- POLCO damage rating (100=total damage to plant; 0=no damage to plant) (plants; Rates 250): 0
- POLCO damage rating (100=total damage to plant; 0=no damage to plant) (plants; Rates 500): 0
- SINAR damage rating (100=total damage to plant; 0=no damage to plant) (plants; Rates 130): 0
- SINAR damage rating (100=total damage to plant; 0=no damage to plant) (plants; Rates 250): 0
- SINAR damage rating (100=total damage to plant; 0=no damage to plant) (plants; Rates 500): 10
- STEME damage rating (100=total damage to plant; 0=no damage to plant) (plants; Rates 130): 0
- STEME damage rating (100=total damage to plant; 0=no damage to plant) (plants; Rates 250): 0
